Test results: patent publication US10457687B2, “Aminoacid derivatives, a process for their preparation and pharmaceutical compositions containing them” (LES LABORATOIRES SERVIER, priority 2015, dated 2019)
One block for each compound: values may come before it.

How the values were obtained:
Mcl-1 protein = Mcl-1 protein (Homo sapiens, UniProt Q07820); assay: Inhibition of Mcl-1 by the fluorescence polarisation technique (Method 1 or Method 2); type: binding; settings: for IC50: fluorescence polarisation, Fluorescein labelled ligand, Method 1 (not underlined) or Method 2 (underlined), read-out: IC50 (μM) Mcl-1 FP
Sequence of Mcl-1 protein (Q07820 whole entry): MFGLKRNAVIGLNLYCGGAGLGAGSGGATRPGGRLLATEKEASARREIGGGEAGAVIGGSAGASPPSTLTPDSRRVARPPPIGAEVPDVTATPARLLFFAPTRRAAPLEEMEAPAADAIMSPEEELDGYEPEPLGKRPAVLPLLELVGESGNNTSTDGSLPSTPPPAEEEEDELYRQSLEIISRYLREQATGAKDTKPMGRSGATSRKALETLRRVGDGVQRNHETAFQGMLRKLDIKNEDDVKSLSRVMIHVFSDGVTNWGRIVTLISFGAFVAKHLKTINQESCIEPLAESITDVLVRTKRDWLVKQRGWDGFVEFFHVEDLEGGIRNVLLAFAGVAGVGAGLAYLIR
Summary of the method: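 Fluorescence polarisation competition of 11-point compound dilutions (5% DMSO final) against fluorescein-labelled ligand for Mcl-1. Method 1: 1 nM ligand, 5 nM protein in 10 mM HEPES, 150 mM NaCl, 0.05% Tween 20, pH 7.4; Method 2: 10 nM ligand, 10 nM protein in 20 mM Na2HPO4, 1 mM EDTA, 50 mM NaCl, pH 7.4.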

[1] = tested on: H929 multiple myeloma tumour line; assay: In vitro cytotoxicity, MTT assay, 48 hours; type: cell-based; settings: H929 cells, 48 hours exposure, cell viability
Procedure: The cytotoxicity studies were carried out on the H929 multiple myeloma tumour line.
The cells are distributed onto microplates and exposed to the test compounds for 48 hours.

[2] = partial inhibitors, @ 10 μM test compound
[3] = partial inhibitors, @ 50 μM test compound

Structure (SMILES): Cc1c(-c2c(-c3ccco3)sc3ncnc(N[C@H](Cc4ccccc4Cl)C(=O)O)c23)ccc(OCCN2CCN(C)CC2)c1Cl (single isomer, unassigned) [Example 10, 2-chloro-N-[5-{3-chloro-2-methyl-4-[2-(4-methylpiperazin-1-yl)ethoxy]phenyl}-6-(furan-2-yl)thieno[2,3-d]pyrimidin-4-yl]-D-phenylalanine]
inhibition at 3.3 µM (Mcl-1 protein; partial inhibitors, @ 3.3 μM test compound, read-out: percentage fluorescence polarisation inhibition, Mcl-1 FP): 72.8% | IC50 ([1]; Homo sapiens, NCI-H929): > 3.75 µM

Structure (SMILES): CCCCn1nccc1COc1ccccc1CC(Nc1ncnc2sc(-c3ccc(F)cc3)c(-c3ccc(OCCN4CCN(C)CC4)c(Cl)c3C)c12)C(=O)O [Example 6, 2-[(1-butyl-1H-pyrazol-5-yl)methoxy]-N-[(5Sa)-5-{3-chloro-2-methyl-4-[2-(4-methylpiperazin-1-yl)ethoxy]phenyl}-6-(4-fluorophenyl)thieno[2,3-d]pyrimidin-4-yl]-D-phenylalanine]
IC50 (Mcl-1 protein): 0.013 µM | IC50 ([1]; Homo sapiens, NCI-H929): > 0.6 µM

Structure (SMILES): Cc1c(-c2c(-c3ccsc3)sc3ncnc(NC(Cc4ccccc4F)C(=O)O)c23)ccc(OCCN2CCN(C)CC2)c1Cl [Example 34, N-[(5Sa)-5-{3-chloro-2-methyl-4-[2-(4-methylpiperazin-1-yl)ethoxy]phenyl}-6-(thiophen-3-yl)thieno[2,3-d]pyrimidin-4-yl]-2-fluoro-D-phenylalanine]
IC50 (Mcl-1 protein): 0.726 µM | IC50 ([1]; Homo sapiens, NCI-H929): 4.27 µM

Structure (SMILES): COC(=O)c1oc(-c2sc3ncnc(NC(Cc4ccccc4OC)C(=O)O)c3c2-c2ccc(OCCN3CCN(C)CC3)c(Cl)c2C)cc1C [Example 65, N-((5Sa)-5-{3-chloro-2-methyl-4-[2-(4-methylpiperazin-1-yl)ethoxy]phenyl}-6-[5-(methoxycarbonyl)-4-methylfuran-2-yl]thieno[2,3-d]pyrimidin-4-yl)-2-methoxy-D-phenylalanine]
IC50 (Mcl-1 protein): 0.345 µM | IC50 ([1]; Homo sapiens, NCI-H929): ≥ 2.78 µM

Structure (SMILES): Cc1c(-c2c(-c3ccc(F)o3)sc3ncnc(NC(Cc4ccccc4O)C(=O)O)c23)ccc(OCCN(C)C)c1Cl [Example 28, N-[(5Sa)-5-{3-chloro-4-[2-(dimethylamino)ethoxy]-2-methylphenyl}-6-(5-fluorofuran-2-yl)thieno[2,3-d]pyrimidin-4-yl]-2-hydroxy-D-phenylalanine]
IC50 (Mcl-1 protein): 0.116 µM | IC50 ([1]; Homo sapiens, NCI-H929): > 1.88 µM

Structure (SMILES): CC#Cc1sc2ncnc(NC(Cc3ccccc3OC)C(=O)O)c2c1-c1ccc(OCCN2CCN(C)CC2)c(Cl)c1C [Example 39, N-[(5Sa)-5-{3-chloro-2-methyl-4-[2-(4-methylpiperazin-1-yl)ethoxy]phenyl}-6-(prop-1-yn-1-yl)thieno[2,3-d]pyrimidin-4-yl]-2-methoxy-D-phenylalanine]
IC50 (Mcl-1 protein): 0.025 µM | IC50 ([1]; Homo sapiens, NCI-H929): 0.401 µM

Structure (SMILES): Cc1c(-c2c(-c3ccsc3)sc3ncnc(NC(Cc4ccccn4)C(=O)O)c23)ccc(OCCN2CCOCC2)c1Cl [Example 35, N-[(5Ra)-5-{3-chloro-2-methyl-4-[2-(morpholin-4-yl)ethoxy]phenyl}-6-(thiophen-3-yl)thieno[2,3-d]pyrimidin-4-yl]-3-pyridin-2-yl-D-alanine]
percentage fluorescence polarisation inhibition, Mcl-1 FP (Mcl-1 protein; [2]): 24.78% @ 10 μM | IC50 [1]: > 30 µM

Structure (SMILES): Cc1c(-c2c(-c3ccc(F)o3)sc3ncnc(NC(Cc4ccccc4OCC(F)(F)F)C(=O)O)c23)ccc(OCCN2CCN(C)CC2)c1Cl [Example 17, N-[(5Sa)-5-{3-chloro-2-methyl-4-[2-(4-methylpiperazin-1-yl)ethoxy]phenyl}-6-(5-fluorofuran-2-yl)thieno[2,3-d]pyrimidin-4-yl]-2-(2,2,2-trifluoroethoxy)-D-phenylalanine]
IC50 (Mcl-1 protein): 0.057 µM | IC50 ([1]; Homo sapiens, NCI-H929): 0.294 µM

Structure (SMILES): Cc1c(-c2c(-c3ccco3)sc3ncnc(NC(Cc4ccccc4OCc4ccccn4)C(=O)O)c23)ccc(OCCN2CCN(C)CC2)c1Cl [Example 13, N-[(5Ra)-5-{3-chloro-2-methyl-4-[2-(4-methylpiperazin-1-yl)ethoxy]phenyl}-6-(furan-2-yl)thieno[2,3-d]pyrimidin-4-yl]-2-(pyridin-2-ylmethoxy)-D-phenylalanine]
percentage fluorescence polarisation inhibition, Mcl-1 FP (Mcl-1 protein; [2]): 58% @ 10 μM | IC50 [1]: > 3.75 µM

Structure (SMILES): COC(=O)c1oc(-c2sc3ncnc(NC(Cc4ccccc4OC)C(=O)O)c3c2-c2ccc(OCCN3CCN(C)CC3)c(Cl)c2C)cc1C [Example 66, N-((5Ra)-5-{3-chloro-2-methyl-4-[2-(4-methylpiperazin-1-yl)ethoxy]phenyl}-6-[5-(methoxycarbonyl)-4-methylfuran-2-yl]thieno[2,3-d]pyrimidin-4-yl)-2-methoxy-D-phenylalanine]
percentage fluorescence polarisation inhibition, Mcl-1 FP (Mcl-1 protein; [2]): 36.9% @ 10 μM | IC50 [1]: > 3.75 µM

Structure (SMILES): CCc1sc2ncnc(NC(Cc3ccccc3OCC(=O)N(C)C)C(=O)O)c2c1-c1cccc(Cl)c1C [Example 141, N-[(5Ra)-5-(3-chloro-2-methylphenyl)-6-ethylthieno[2,3-d]pyrimidin-4-yl]-2-[2-(dimethylamino)-2-oxoethoxy]-D-phenylalanine]
percentage fluorescence polarisation inhibition, Mcl-1 FP (Mcl-1 protein; [2]): 26.78% @ 10 μM

Structure (SMILES): CCc1sc2ncnc(N[C@](C)(Cc3ccccc3)C(=O)O)c2c1-c1cccc(Cl)c1C [Example 119, N-[5-(3-chloro-2-methylphenyl)-6-ethylthieno[2,3-d]pyrimidin-4-yl]-alpha-methyl-D-phenylalanine]
IC50 (Mcl-1 protein): 1.46 µM

Structure (SMILES): CCc1sc2ncnc(N[C@H](Cc3c(F)cccc3F)C(=O)O)c2c1-c1cccc(Cl)c1C [Example 130, N-[(5Ra)-5-(3-chloro-2-methylphenyl)-6-ethylthieno[2,3-d]pyrimidin-4-yl]-2,6-difluoro-D-phenylalanine]
percentage fluorescence polarisation inhibition, Mcl-1 FP (Mcl-1 protein; [3]): 67.4% @ 50 μM

Structure (SMILES): CCc1sc2ncnc(NC(Cc3ccccc3OCCC3CCCC3)C(=O)O)c2c1-c1cccc(Cl)c1C [Example 143, N-[(5Ra)-5-(3-chloro-2-methylphenyl)-6-ethylthieno[2,3-d]pyrimidin-4-yl]-2-(2-cyclopentylethoxy)-D-phenylalanine]
percentage fluorescence polarisation inhibition, Mcl-1 FP (Mcl-1 protein; [3]): 68.85% @ 50 μM

Structure (SMILES): CCCCn1nccc1COc1ccccc1CC(Nc1ncnc2sc(-c3ccc(F)o3)c(-c3ccc(OCCN4CCN(C)CC4)c(Cl)c3C)c12)C(=O)O [Example 24, 2-[(1-butyl-1H-pyrazol-5-yl)methoxy]-N-[(5Sa)-5-{3-chloro-2-methyl-4-[2-(4-methylpiperazin-1-yl)ethoxy]phenyl}-6-(5-fluorofuran-2-yl)thieno[2,3-d]pyrimidin-4-yl]-D-phenylalanine]
IC50 (Mcl-1 protein): 0.008 µM

Structure (SMILES): CCc1sc2ncnc(N[C@H](Cc3cccc4ccccc34)C(=O)O)c2c1-c1cccc2ccccc12 (single isomer, unassigned) [Example 187, N-[6-ethyl-5-(naphthalen-1-yl)thieno[2,3-d]pyrimidin-4-yl]-3-naphthalen-1-yl-D-alanine]
IC50 (Mcl-1 protein): 1.39 µM

Next, values leading:

IC50 (Mcl-1 protein): 0.065 µM
Structure (SMILES): C=C(C)c1sc2ncnc(NC(Cc3ccccc3)C(=O)O)c2c1-c1cccc2ccccc12 [Example 106, N-[(5Sa)-5-(naphthalen-1-yl)-6-(prop-1-en-2-yl)thieno[2,3-d]pyrimidin-4-yl]-D-phenylalanine]

inhibition at 7.4 µM (Mcl-1 protein; partial inhibitors, @ 7.4 μM test compound, read-out: percentage fluorescence polarisation inhibition, Mcl-1 FP): 62.6%
Structure (SMILES): CCc1sc2ncnc(N[C@H](Cc3ccccc3)C(=O)O)c2c1-c1cccc2c1cnn2C [Example 87, N-[6-ethyl-5-(1-methyl-1H-indazol-4-yl)thieno[2,3-d]pyrimidin-4-yl]-D-phenylalanine]

IC50 (Mcl-1 protein): 4.02 µM
Structure (SMILES): CCc1sc2ncnc(NC(Cc3ccccc3)C(=O)O)c2c1-c1cccc2ccn(C)c12 [Example 84, N-[6-ethyl-(5Ra)-5-(1-methyl-1H-indol-7-yl)thieno[2,3-d]pyrimidin-4-yl]-D-phenylalanine]

percentage fluorescence polarisation inhibition, Mcl-1 FP (Mcl-1 protein; partial inhibitors, @ 100 μM test compound, 100 µM): 26.2% @ 100 μM
Structure (SMILES): CC(O)c1sc2ncnc(N[C@H](Cc3ccccc3)C(=O)O)c2c1-c1cccc2ccccc12 (single isomer, unassigned) [Example 205, N-[6-(1-hydroxyethyl)-5-(naphthalen-1-yl)thieno[2,3-d]pyrimidin-4-yl]-D-phenylalanine]

IC50 (Mcl-1 protein): 0.299 µM
Structure (SMILES): CCc1sc2ncnc(NC(Cc3ccccc3F)C(=O)O)c2c1-c1cccc2ccccc12 [Example 181, N-[6-ethyl-(5Sa)-5-(naphthalen-1-yl)thieno[2,3-d]pyrimidin-4-yl]-2-fluoro-D-phenylalanine]

IC50 (Mcl-1 protein): 0.276 µM
Structure (SMILES): CCc1sc2ncnc(NC(Cc3ccccc3)C(=O)O)c2c1-c1cccc2[nH]ccc12 [Example 73, N-[6-ethyl-(5Sa)-5-(1H-indol-4-yl)thieno[2,3-d]pyrimidin-4-yl]-D-phenylalanine]

IC50 (Mcl-1 protein): 0.171 µM
Structure (SMILES): CCc1sc2ncnc(N[C@H](Cc3ccccn3)C(=O)O)c2c1-c1cccc2ccccc12 [Example 191, N-[6-ethyl-5-(naphthalen-1-yl)thieno[2,3-d]pyrimidin-4-yl]-3-pyridin-2-yl-D-alanine]

IC50 (Mcl-1 protein): 2.1 µM
Structure (SMILES): CCc1sc2ncnc(NC(Cc3ccccc3F)C(=O)O)c2c1-c1cccc2ccccc12 [Example 180, N-[6-ethyl-(5Ra)-5-(naphthalen-1-yl)thieno[2,3-d]pyrimidin-4-yl]-2-fluoro-D-phenylalanine]

IC50 (Mcl-1 protein): 14.3 µM
Structure (SMILES): CCc1sc2ncnc(NC(Cc3ccccc3)C(=O)O)c2c1-c1cccc2c1c(Cl)cn2CCCN1CCN(C)CC1 [Example 241, N-((5Ra)-5-{3-chloro-1-[3-(4-methylpiperazin-1-yl)propyl]-1H-indol-4-yl}-6-ethyl-thieno[2,3-d]pyrimidin-4-yl)-D-phenylalanine]

IC50 (Mcl-1 protein): 2.08 µM
Structure (SMILES): CCc1sc2ncnc(N[C@H](Cc3cccnc3)C(=O)O)c2c1-c1cccc2ccccc12 [Example 192, N-[6-ethyl-5-(naphthalen-1-yl)thieno[2,3-d]pyrimidin-4-yl]-3-pyridin-3-yl-D-alanine]
